{"source": "patent US12012415B2", "about": "“Compositions and methods for the diagnosis, treatment and prevention of neoplastic and neurological disorders” (AscentGene, Inc., priority 2018, dated 2024)", "key": {"[1]": {"test_system": "human non-small cell lung cancer cell line H841", "assay": "Cell growth of NSCLC cell lines", "format": "cell-based", "details": "cell growth rate from number of live cells", "method": "Rat glioblastoma cell lines C6 (A) and human non-small cell lung cancer cell line H841 (B) were grown in the proper medium and treated with different concentration of drug candidate AG-1031 (P) and AG-1503 (#3). Cell growth rate was calculated based on the number of live cells as compared to concentration in M of selected small molecules of the invention (see FIGS. 6A and 6B)."}, "[2]": {"test_system": "Aβ1-42-induced cognitive impairments", "assay": "Novel-object recognition (NOR) test in Aβ1-42 AD rat model", "format": "in vivo, rats", "method": "Aβ1-42 (Sigma-Aldrich, St. Louis, MO, USA;) was dissolved in double-distilled water at the concentration of 5 μg/μl, and incubated at 37° C. for one week before surgery. The rats were randomly divided into four groups as Sham (n=8), Sham+AG-1601 (n=8), Aβ1-42 (n=8) and Aβ1-42+AG-1601 (n=8). The Alzheimer's disease rat models were established by intracerebroventricular (i.c.v.) injection of Aβ1-42 aggregates. The animals were anesthetized with intraperitoneal injection of pentobarbital sodium (50 mg/kg) and placed in a stereotaxic apparatus (Narishige, Japan). The head skin of the rat was opened and two small holes were drilled on both sides of skull following the coordinates: 0.8 mm posterior to bregma, +1.4 mm lateral to sagittal suture, 4.0 mm beneath the surface of brain. Aβ1-42 (2.0 μl per side) was injected bilaterally into the lateral ventricles through micro-syringe. The needle was taken out after 5 minutes of the injection to ensure the aggregates were infused completely. […] The short- and long-term memory functions of the animals were evaluated by using the NOR test, which were carried out after the open field test. […] A recognition index was calculated by the percentage of TB/(TA+TB) (TA: time spent exploring the familiar object A; TB: time spent exploring the novel object B). […]"}, "U251 cells": {"test_system": "U251 cells", "assay": "Cell viability, combination with TMZ in U251 cells", "format": "cell-based, human", "method": "(§1) Human glioma cell lines of U251, SF539, SF295 were obtained from NCI/DTP and U87 was obtained from ATCC. U251, SF539, and SF295 cells were grown in RPMI (Gibco) medium; U87 cells were grown in EMEM medium (ATCC), all the cells culture media containing 10% FBS and 100 unit/ml of Penicillin-Streptomycin, and cells were incubated in a 37 °C/5% CO2 humidified hood. One day before chemical compounds treatment, four kinds of cells U251, SF539, SF295, and U87 were seeded in 96-well plates at 10,000 cells/well (100 μl) with triplicate. The culture medium was removed and cells were treated with a series different concentration of AG1601/in correspond fresh media. Following an additional incubation of 48 hours at 37° C./5% CO2, cells proliferation assay was performed with Cell Counting Kit-8 (Dojindo Laboratories, #CK04), added 10 μl of reagent to the cells in each well after replacing with 100 μl of fresh media, mix well, following an additional 2 to 3 hours incubation at 37° C./5% CO2, read wavelengths of OD450 nm in a 96-well plate reader (Victor 2, 1420 Multilabel counter), data analysis were performed with Excel and it is platted as relative mean OD450 nm+/−standard error of the mean.\n(§2) Cells were treated with indicated content of AG-1601 for 48 hours, then followed by performance of cell viability assays. […]"}, "U87 cells": {"test_system": "U87 cells", "assay": "Cell viability, combination with TMZ in U87 cells", "format": "cell-based, human", "method": "as §1, §2"}, "T98G cells": {"test_system": "T98G cells", "assay": "Cell viability in TMZ-resistant T98G cells", "format": "cell-based", "details": "TMZ plus AG-1601", "method": "Cells were treated with indicated content of AG-1601 for 48 hours, then followed by performance of cell viability assays. Efficacy of AG-1601 in rat cell (see FIGS. 24A and B), of AG-1601 in human glioma cell see FIGS. 25A and 25B), different batches of AG-1601 in C6 and U251 cells (see FIGS. 26A and 26B), of AG-1601 in C6 and U87 cells (see FIGS. 27A and 27B), of AG-1601, TMZ, and Carmustine in U251 cells (see FIGS. 28A and 28B), and of AG-1601, TMZ, and Carmustine in U87 cells (see FIGS. 29A and 29B). […] Cell viability was determined in T98G cell and U251 cell after treatment with DMSO, TMZ, AG-1601 and TMZ plus AG-1601 (FIG. 30)."}}}
{"compound": "C=CC1=C(C)c2cc3[nH]c(cc4nc(cc5[nH]c(cc1n2)c(C)c5C=C)C(C)=C4CCC(=O)O)c(CCC(=O)NCCCc1ccccc1)c3C", "note": "[AG-1601, 3-(2,8,13,18-tetramethyl-3-(3-oxo-3-((3-phenylpropyl)amino)propyl)-12,17-divinylporphyrin-7-yl)propanoic acid]", "values": [{"measurement": "inhibition of growth of NSCLC cell lines", "setting": "[1]", "value": "inhibiting growth of some NSCLC cell lines"}, {"measurement": "recognition index, short-term memory test", "setting": "[2]; 1 h after training, vs Aβ1-42 group", "value": "significant increase in recognition index"}, {"measurement": "cognitive impairments in NOR test", "setting": "[2]; Aβ42 induced AD rat model", "value": "significantly reversed cognitive impairments"}, {"measurement": "potentiation of the effect of TMZ", "setting": "U251 cells", "value": "potentiates the effect of TMZ"}, {"measurement": "potentiation of the effect of TMZ", "setting": "U87 cells", "value": "potentiates the effect of TMZ"}, {"measurement": "effect on TMZ-resistance", "setting": "T98G cells", "value": "Overcomes the Effect of TMZ-resistance"}]}
